# Experimental data: patent publication US4642341A, “Carbapenem antibiotics” (priority 1985, dated 1987)
# Read-outs that look alike come from different tables or passages of the source.
# Tests used:
# [1] = Half-life in phosphate buffer pH 7.4; type: physicochemical; conditions: phosphate buffer, pH 7.4, τ1/2 (half-life)
# Protocol: To a solution of p-nitrobenzyl 3-[2-(1-pyridinium)ethylthio)]-6α[1-(R)-hydroxyethyl]-7-oxo-1-azabicyclo(3.2.0)hept-2-ene-carboxylate diphenylphosphate (0.16 g, 0.22 mmol) in wet tetrahydrofuran (10mL) was added ether (10mL), potassium phosphate monobasic-sodium hydroxide buffer pH 7.4 (16 mL, 0.05 M) and 10% palladium on charcoal (0.16 g). The resulting mixture was hydrogenated under 40 psi for 1 h at 25° C. The two phases were separated and the organic phase was extracted with water (2×3 mL). The aqeuous solutions were combined, washed with ether (2×10 ml) and poured on top of a column (1.5×6.2 cm) pf μ-bondapak C-18 after the traces of organic solvents have been removed under vacuum. Elution of the column with water gave after lyophylization of the appropriate fractions a yellowish powder 0.062 g (84%), ir (KBr) .nu.max : 3700-3000 (OH), 1755 (C--O of β-lactam), 1630 (pyridinium), 1590 cm^-1 (carboxylate), ^1 Hmr (D2 O): 1.22 (3H, d, J=6.4 Hz, CH3 CHOH), 2.92 (d, J=9.1 Hz, H-4), 2.97 (d, J=9.1 Hz, H-4), 3.20 (dd, J=2.5 Hz, J=6.1 Hz, H-6), 3.44 (t, J=6.0 Hz, CH2 S), 3.93 (dd, J=9.1 Hz, J=2.5 Hz, H-5), 4.82 (t, J=6.0 Hz, CH2 N^+), 8.04 (m, Hm of pyridinium), 8.5 (m, Hp of pyridinium), 8.82 (dd, J=3.2. Hz, J=1.1 Hz, Ho of pyridinium), uv (H2 O) λ max : 259 (ε5800), 296 (ε7030) mμ, .tau.1/2 =13.5 h (measured at a concentration of 10^-4 M in phosphate buffer pH 7.4 at 36.8° C.).
# P. rettgeri A22424 = assay: Minimum Inhibitory Concentration, tube dilution; type: cell-based; conditions: Providencia rettgeri, overnight 37° C.
# [2] = test system: S. aureus A15097 (Meth-res.); assay: Minimum Inhibitory Concentration, tube dilution; type: cell-based; conditions: Staphylococcus aureus, table 6
# E. cloacae A-9656 = assay: Minimum Inhibitory Concentration, tube dilution; type: cell-based; conditions: Enterobacter cloacae, A9656; overnight 37° C.; table 6
# S. marcescens A20019 = assay: Minimum Inhibitory Concentration, tube dilution; type: cell-based; conditions: Serratia marcescens, A20019, overnight 37° C.; table 6
# [3] = test system: S. aureus A-9606 (Pen-res.); assay: Minimum Inhibitory Concentration, tube dilution; type: cell-based; conditions: Staphylococcus aureus, Pen-res; table 6
# S. pyogenes A-9604 = assay: Minimum Inhibitory Concentration, tube dilution; type: cell-based; conditions: Streptococcus pyogenes, A9604, overnight 37° C.; table 6
# M. morganii A15153 = assay: Minimum Inhibitory Concentration, tube dilution; type: cell-based; conditions: Morganella morganii, A15153, overnight 37° C.; table 6
# E. coli A20341-1 = assay: Minimum Inhibitory Concentration, tube dilution; type: cell-based; conditions: Escherichia coli, A203411, overnight 37° C.; table 6
# K. pneumoniae A-9664 = assay: Minimum Inhibitory Concentration, tube dilution; type: cell-based; conditions: Klebsiella pneumoniae, A9664, overnight 37° C.; table 6
# S. aureus A-9537 = assay: Minimum Inhibitory Concentration, tube dilution; type: cell-based; conditions: table 6
# P. aeruginosa A9843A [4] = assay: animal or person; type: in vivo, mice; conditions: Pseudomonas aeruginosa, in Mus musculus, im, read-out: PD50 /treatment
# Excerpt: The PD50 (dose in mg/kg required to give protection to 50% of the infected mice) is indicated.
# P. vulgaris A21559 = assay: Minimum Inhibitory Concentration, tube dilution; type: cell-based; conditions: Proteus vulgaris, A21559, overnight 37° C.; table 6
# P. aeruginosa A21213 = assay: Minimum Inhibitory Concentration, tube dilution; type: cell-based; conditions: Pseudomonas aeruginosa, A21213, overnight 37° C.; table 6; read-out: MIC
# S. faecalis A20688 = assay: Minimum Inhibitory Concentration, tube dilution; type: cell-based; conditions: Enterococcus faecalis, A20688, overnight 37° C., table 6
# B. fragilis A22862 = assay: Minimum Inhibitory Concentration, tube dilution; type: cell-based; conditions: Bacteroides fragilis, overnight 37° C., table 6
# P. mirabilis A-9900 = assay: Minimum Inhibitory Concentration, tube dilution; type: cell-based; conditions: Proteus mirabilis, A9900, overnight 37° C.; table 6
# S. pneumoniae A-9585 = assay: Minimum Inhibitory Concentration, tube dilution; type: cell-based; conditions: Streptococcus pneumoniae, A9585, overnight 37° C.; table 6
# B. fragilis A22696 = assay: Minimum Inhibitory Concentration, tube dilution; type: cell-based; conditions: Bacteroides fragilis, overnight 37° C., table 6, read-out: MIC
# P. aeruginosa A-9843A = assay: Minimum Inhibitory Concentration, tube dilution; type: cell-based; conditions: Pseudomonas aeruginosa, A9843A, overnight 37° C.; table 6; read-out: MIC
# E. cloacae A9659 = assay: Minimum Inhibitory Concentration, tube dilution; type: cell-based; conditions: Enterobacter cloacae, A9659, overnight 37° C., table 6
# E. coli A15119 = assay: Minimum Inhibitory Concentration, tube dilution; type: cell-based; conditions: Escherichia coli, A15119, overnight 37° C.; table 6
# S. aureus A9606 = assay: Protective effect, intramuscular treatment of infected mice (table 7); type: in vivo; conditions: Staphylococcus aureus, A9606, im; i.m. 0 to 2 hours post-infection; ~1×10^9 organisms i.p.; read-out: PD50 /treatment
# Protocol: (§1) Drugs were administered i.m. 0 to 2 hours post-infection (A9606) or 1 and 3.5 hours post-infection for the others.
# P. mirabilis A9900 = assay: as above; type: in vivo; conditions: Proteus mirabilis, A9900, im; i.m. 1 and 3.5 hours post-infection; ~1×10^7 organisms i.p.; read-out: PD50 /treatment
# Protocol: as §1
# H. influenzae A-9833 = assay: Minimum Inhibitory Concentration, tube dilution; type: cell-based; conditions: Haemophilus influenzae, A9833; overnight 37° C.; table 6; read-out: MIC
# P. aeruginosa A9843A [5] = assay: animal or person; type: in vivo, mice; conditions: Pseudomonas aeruginosa, in Mus musculus, im, 3.5 h, read-out: PD50 /treatment
# Protocol: as §1
# [6] = Pharmacokinetic parameters in the mouse after intramuscular dose; type: in vivo, mice; conditions: im, 20 mg/kg
# Excerpt: Also shown is the urinary recovery in the mice.
# Compounds were solubilized in 0.1 M phosphate buffer pH 7.
# H. influenzae A21518 = assay: Minimum Inhibitory Concentration, tube dilution; type: cell-based; conditions: Haemophilus influenzae, overnight 37° C., table 6
# K. pneumoniae A20468 = assay: Minimum Inhibitory Concentration, tube dilution; type: cell-based; conditions: Klebsiella pneumoniae, A20468, overnight 37° C., table 6
# [7] = Staphylococcus aureus, A9537, 50% serum, read-out: MIC
# [8] = Staphylococcus aureus, A9537, overnight 37° C., read-out: MIC
Structure (SMILES),half-life at 100 µM [1],"MIC (P. rettgeri A22424; table 6, read-out: MIC)",MIC [2],MIC (E. cloacae A-9656),MIC (S. marcescens A20019),MIC [3],MIC (S. pyogenes A-9604),MIC (M. morganii A15153),MIC (E. coli A20341-1),MIC (K. pneumoniae A-9664),MIC (S. aureus A-9537; [7]),MIC (S. aureus A-9537; [8]),ED50 (P. aeruginosa A9843A [4]),MIC (P. vulgaris A21559),MIC (P. aeruginosa A21213),MIC (S. faecalis A20688; read-out: MIC),MIC (B. fragilis A22862),MIC (P. mirabilis A-9900),MIC (S. pneumoniae A-9585),MIC (P. aeruginosa A-9843A),also measured
"CC(C[n+]1ccccc1)SC1=C(C(=O)[O-])N2C(=O)[C@H]([C@@H](C)O)[C@H]2C1 (single isomer, unassigned) [Ex. 15 (cmp. ""B"")]",756 min,0.06 µg/mL,0.03 µg/mL,0.06 µg/mL,,,,,,,,,,,,,,,,,
Cc1cccc(C)[n+]1CCSC1=C(C(=O)[O-])N2C(=O)[C@H]([C@@H](C)O)[C@H]2C1 [Example 12],,0.5 µg/mL,,0.5 µg/mL,0.06 µg/mL,0.016 µg/mL,2 ng/mL,0.06 µg/mL,0.016 µg/mL,0.06 µg/mL,0.03 µg/mL,0.008 µg/mL,> 25 mg/kg,0.03 µg/mL,16 µg/mL,0.25 µg/mL,0.06 µg/mL,0.06 µg/mL,2 ng/mL,> 32 µg/mL,MIC (B. fragilis A22696): 0.25 µg/mL; MIC (E. cloacae A9659; read-out: MIC): 0.25 µg/mL
"C[C@@H](O)[C@H]1C(=O)N2C(C(=O)[O-])=C(SC3CCCCC3[n+]3ccccc3)C[C@H]12 (single isomer, unassigned) [Ex. 16 (cmp. ""A""), (5R,6S) 3-[2-[(R or S)-(1-pyridinium)]-1-(R or S)-cyclohexylthio]-6-[1-(R)-hydroxyethyl]-7-oxo-1-azabicyclo(3.2.0)hept-2-ene-2-carboxylate]",,,,0.5 µg/mL,0.13 µg/mL,,,,,,,,,,,,,,,,MIC (E. coli A15119): 0.06 µg/mL
"Cc1cc[n+](CCSC2=C(C(=O)[O-])N3C(=O)[C@H]([C@@H](C)O)[C@H]3C2)cc1 [Example 8, 3-[2-(1-(4-methylpyridinium))ethylthio]-6α-[1(R)-hydroxyethyl]-7-oxo-1-azabicyclo(3.2.0)hept-2-ene-2-carboxylate]",768 min,,> 63 µg/mL,,,0.06 µg/mL,30 ng/mL,0.03 µg/mL,,,0.06 µg/mL,0.03 µg/mL,,0.06 µg/mL,,,0.06 µg/mL,,30 ng/mL,8 µg/mL,"ED50 (S. aureus A9606): 0.8 mg/kg; ED50 (P. mirabilis A9900): ~38 mg/kg; MIC (H. influenzae A-9833): > 32 µg/mL; ED50 (P. aeruginosa A9843A [5]): 0.9 mg/kg; AUC ([6]; blood): 4600 ng·h/mL; Cmax ([6]; blood): 10600 ng/mL; half-life ([6]; blood, read-out: T1/2 (blood)): 8.2 min; dose excreted ([6]; urine, read-out: Urine Recovery): 47 ± 7%; MIC (H. influenzae A21518): > 32 µg/mL"
"CSc1cc[n+](CCSC2=C(C(=O)[O-])N3C(=O)[C@H]([C@@H](C)O)[C@H]3C2)cc1 [Example 9, (5R) 3-[2-(4-methylthiopyridinio)ethylthio]-(6S)-[(1R)-hydroxyethyl]-7-oxo-1-azabicyclo[3.2.0]hept-2-ene-2-carboxylate]",,,,,0.06 µg/mL,0.008 µg/mL,1 ng/mL,,0.03 µg/mL,,0.016 µg/mL,0.008 µg/mL,3.1 mg/kg,0.016 µg/mL,2 µg/mL,,0.06 µg/mL,0.06 µg/mL,2 ng/mL,4 µg/mL,MIC (E. coli A15119): 0.03 µg/mL; MIC (P. rettgeri A22424; table 6): 0.25 µg/mL; MIC (K. pneumoniae A20468): 0.25 µg/mL; MIC (S. faecalis A20688): 0.25 µg/mL; MIC (E. cloacae A9659): 0.25 µg/mL
"C[C@@H](O)[C@H]1C(=O)N2C(C(=O)[O-])=C(SC3CCCCC3[n+]3ccccc3)C[C@H]12 (single isomer, unassigned) [Ex. 16 (cmp. ""B""), (5R,6S) 3-[2-[(R or S)-(1-pyridinium)]-1-(R or S)-cyclohexylthio]-6-[1-(R)-hydroxyethyl]-7-oxo-1-azabicyclo(3.2.0)hept-2-ene-2-carboxylate]",,4 µg/mL,0.5 µg/mL,,,,4 ng/mL,,0.06 µg/mL,0.13 µg/mL,,,,,,8 µg/mL,,0.13 µg/mL,2 ng/mL,32 µg/mL,MIC (S. aureus A-9537; overnight 37° C.): 0.013 µg/mL; MIC (K. pneumoniae A20468; read-out: MIC): 0.5 µg/mL; MIC (E. cloacae A9659; read-out: MIC): 0.5 µg/mL
